ChEMBL document CHEMBL3044826, “Design, synthesis and biological evaluation of some novel substituted 2-mercapto-3-phenethylquinazolines as antitumor agents” (2013)

How the values were obtained:
Format in all cases: functional
[1] = system: ACHN; assay: Cytotoxicity against Homo sapiens (human) ACHN cells assessed as growth inhibition at 10 uM after 48 hr by coulter counter analysis; settings: read-out: GI
[2] = system: MDA-MB-231; assay: Cytotoxicity against Homo sapiens (human) MDA-MB-231 cells assessed as growth inhibition at 10 uM after 48 hr by coulter counter analysis; settings: MDA-MB-231, 48 h, read-out: GI
[3] = system: OVCAR-3; assay: Cytotoxicity against Homo sapiens (human) OVCAR3 cells assessed as growth inhibition at 10 uM after 48 hr by coulter counter analysis; settings: OVCAR-3, 48 h, read-out: GI
[4] = system: HCT-116; assay: Cytotoxicity against Homo sapiens (human) HCT116 cells assessed as growth inhibition at 10 uM after 48 hr by coulter counter analysis; settings: HCT-116, 48 h, read-out: GI
[5] = system: HCT-15; assay: Cytotoxicity against Homo sapiens (human) HCT15 cells assessed as growth inhibition at 10 uM after 48 hr by coulter counter analysis; settings: HCT-15, 48 h, read-out: GI
[6] = system: MDA-MB-435; assay: Cytotoxicity against Homo sapiens (human) MDA-MB-435 cells assessed as growth inhibition at 10 uM after 48 hr by coulter counter analysis; settings: MDA-MB-435, 48 h, read-out: GI
[7] = system: KM12; assay: Cytotoxicity against Homo sapiens (human) KM12 cells assessed as growth inhibition at 10 uM after 48 hr by coulter counter analysis; settings: KM12, 48 h, read-out: GI
[8] = system: Malme-3M; assay: Cytotoxicity against Homo sapiens (human) MALME-3M cells assessed as growth inhibition at 10 uM after 48 hr by coulter counter analysis; settings: read-out: GI
[9] = system: SNB-19; assay: Cytotoxicity against Homo sapiens (human) SNB19 cells assessed as growth inhibition at 10 uM after 48 hr by coulter counter analysis; settings: SNB-19, 48 h, read-out: GI
[10] = system: OVCAR-8; assay: Cytotoxicity against Homo sapiens (human) OVCAR8 cells assessed as growth inhibition at 10 uM after 48 hr by coulter counter analysis; settings: OVCAR-8, 48 h, read-out: GI
[11] = system: HCC 2998; assay: Cytotoxicity against Homo sapiens (human) HCC2998 cells assessed as growth inhibition at 10 uM after 48 hr by coulter counter analysis; settings: HCC 2998, 48 h, read-out: GI
[12] = system: TK-10; assay: Cytotoxicity against Homo sapiens (human) TK10 cells assessed as growth inhibition at 10 uM after 48 hr by coulter counter analysis; settings: TK-10, 48 h, read-out: GI
[13] = system: LOX IMVI; assay: Cytotoxicity against Homo sapiens (human) LOXIMVI cells assessed as growth inhibition at 10 uM after 48 hr by coulter counter analysis; settings: read-out: GI
[14] = system: SN12C; assay: Cytotoxicity against Homo sapiens (human) SN12C cells assessed as growth inhibition at 10 uM after 48 hr by coulter counter analysis; settings: read-out: GI
[15] = system: PC-3; assay: Cytotoxicity against Homo sapiens (human) PC3 cells assessed as growth inhibition at 10 uM after 48 hr by coulter counter analysis; settings: PC-3, 48 h, read-out: GI
[16] = system: SK-OV-3; assay: Cytotoxicity against Homo sapiens (human) SKOV3 cells assessed as growth inhibition at 10 uM after 48 hr by coulter counter analysis; settings: SK-OV-3, 48 h, read-out: GI
[17] = system: A549; assay: Cytotoxicity against Homo sapiens (human) A549 cells assessed as growth inhibition at 10 uM after 48 hr by coulter counter analysis; settings: A549, 48 h, read-out: GI
[18] = system: HT-29; assay: Cytotoxicity against Homo sapiens (human) HT-29 cells assessed as growth inhibition at 10 uM after 48 hr by coulter counter analysis; settings: HT-29, 48 h, read-out: GI
[19] = system: COLO 205; assay: Cytotoxicity against Homo sapiens (human) COLO205 cells assessed as growth inhibition at 10 uM after 48 hr by coulter counter analysis; settings: COLO 205, 48 h, read-out: GI
[20] = system: OVCAR-5; assay: Cytotoxicity against Homo sapiens (human) OVCAR5 cells assessed as growth inhibition at 10 uM after 48 hr by coulter counter analysis; settings: OVCAR-5, 48 h, read-out: GI
[21] = system: OVCAR-4; assay: Cytotoxicity against Homo sapiens (human) OVCAR4 cells assessed as growth inhibition at 10 uM after 48 hr by coulter counter analysis; settings: OVCAR-4, 48 h, read-out: GI
[22] = system: NCI-H322M; assay: Cytotoxicity against Homo sapiens (human) NCI-H322M cells assessed as growth inhibition at 10 uM after 48 hr by coulter counter analysis; settings: read-out: GI
[23] = system: SF-295; assay: Cytotoxicity against Homo sapiens (human) SF295 cells assessed as growth inhibition at 10 uM after 48 hr by coulter counter analysis; settings: SF-295, 48 h, read-out: GI
[24] = system: SK-MEL-28; assay: Cytotoxicity against Homo sapiens (human) SK-MEL-28 cells assessed as growth inhibition at 10 uM after 48 hr by coulter counter analysis; settings: SK-MEL-28, 48 h, read-out: GI
[25] = system: U-251; assay: Cytotoxicity against Homo sapiens (human) U251 cells assessed as growth inhibition at 10 uM after 48 hr by coulter counter analysis; settings: U-251, 48 h, read-out: GI
[26] = system: MCF7; assay: Cytotoxicity against Homo sapiens (human) MCF7 cells assessed as growth inhibition at 10 uM after 48 hr by coulter counter analysis; settings: MCF7, 48 h, read-out: GI
[27] = system: IGROV-1; assay: Cytotoxicity against Homo sapiens (human) IGROV1 cells assessed as growth inhibition at 10 uM after 48 hr by coulter counter analysis; settings: IGROV-1, 48 h, read-out: GI
[28] = system: BT-549; assay: Cytotoxicity against Homo sapiens (human) BT549 cells assessed as growth inhibition at 10 uM after 48 hr by coulter counter analysis; settings: BT-549, 48 h, read-out: GI
[29] = system: M14; assay: Cytotoxicity against Homo sapiens (human) M14 cells assessed as growth inhibition at 10 uM after 48 hr by coulter counter analysis; settings: M14, 48 h, read-out: GI
[30] = system: SW-620; assay: Cytotoxicity against Homo sapiens (human) SW620 cells assessed as growth inhibition at 10 uM after 48 hr by coulter counter analysis; settings: SW-620, 48 h, read-out: GI
[31] = system: DU-145; assay: Cytotoxicity against Homo sapiens (human) DU145 cells assessed as growth inhibition at 10 uM after 48 hr by coulter counter analysis; settings: DU-145, 48 h, read-out: GI
[32] = system: SF-268; assay: Cytotoxicity against Homo sapiens (human) SF268 cells assessed as growth inhibition at 10 uM after 48 hr by coulter counter analysis; settings: SF-268, 48 h, read-out: GI
[33] = system: MDA-MB-468; assay: Cytotoxicity against Homo sapiens (human) MDA-MB-468 cells assessed as growth inhibition at 10 uM after 48 hr by coulter counter analysis; settings: MDA-MB-468, 48 h, read-out: GI
[34] = system: SF-539; assay: Cytotoxicity against Homo sapiens (human) SF539 cells assessed as growth inhibition at 10 uM after 48 hr by coulter counter analysis; settings: SF-539, 48 h, read-out: GI

Row | SMILES | inhibition of growth at 10 µM [1] [%] | inhibition of growth at 10 µM [2] [%] | inhibition of growth at 10 µM [3] [%] | inhibition of growth at 10 µM [4] [%] | inhibition of growth at 10 µM [5] [%] | inhibition of growth at 10 µM [6] [%] | inhibition of growth at 10 µM [7] [%] | inhibition of growth at 10 µM [8] [%] | inhibition of growth at 10 µM [9] [%] | inhibition of growth at 10 µM [10] [%] | inhibition of growth at 10 µM [11] [%] | inhibition of growth at 10 µM [12] [%] | inhibition of growth at 10 µM [13] [%] | inhibition of growth at 10 µM [14] [%] | inhibition of growth at 10 µM [15] [%] | inhibition of growth at 10 µM [16] [%] | inhibition of growth at 10 µM [17] [%] | inhibition of growth at 10 µM [18] [%] | inhibition of growth at 10 µM [19] [%] | inhibition of growth at 10 µM [20] [%] | further results
1 | O=C(CSc1nc2ccccc2c(=O)n1CCc1ccccc1)c1ccc(F)cc1 | 24 | 23 | < 10 | 18 | < 10 | < 10 | < 10 | < 10 | < 10 | 31 | < 10 | < 10 | < 10 | < 10 | 13 | < 10 | 11 | < 10 | < 10 | < 10 | inhibition of growth at 10 µM [21]: < 10%; inhibition of growth at 10 µM [22]: 13%; inhibition of growth at 10 µM [23]: < 10%; inhibition of growth at 10 µM [24]: < 10%; inhibition of growth at 10 µM [25]: 19%; inhibition of growth at 10 µM [26]: < 10%; inhibition of growth at 10 µM [27]: 21%; inhibition of growth at 10 µM [28]: < 10%; inhibition of growth at 10 µM [29]: < 10%; inhibition of growth at 10 µM [30]: < 10%; inhibition of growth at 10 µM [31]: < 10%; inhibition of growth at 10 µM [32]: 25%; inhibition of growth at 10 µM [33]: < 10%; inhibition of growth at 10 µM [34]: 13%
2 | O=c1c2ccccc2nc(SCc2ccc([N+](=O)[O-])cc2)n1CCc1ccccc1 | < 10 | 19 | < 10 | 20 | < 10 | < 10 | < 10 | < 10 | < 10 | < 10 | < 10 | < 10 | < 10 | < 10 | < 10 | < 10 | 16 | 15 | < 10 | < 10 | inhibition of growth at 10 µM [21]: < 10%; inhibition of growth at 10 µM [22]: < 10%; inhibition of growth at 10 µM [23]: < 10%; inhibition of growth at 10 µM [24]: < 10%; inhibition of growth at 10 µM [25]: < 10%; inhibition of growth at 10 µM [26]: < 10%; inhibition of growth at 10 µM [27]: < 10%; inhibition of growth at 10 µM [28]: < 10%; inhibition of growth at 10 µM [29]: < 10%; inhibition of growth at 10 µM [30]: < 10%; inhibition of growth at 10 µM [31]: 24%; inhibition of growth at 10 µM [32]: < 10%; inhibition of growth at 10 µM [33]: 3%; inhibition of growth at 10 µM [34]: < 10%
